Structures are written as SMILES. Structures can show the parent of a compound that is named as a salt. A value given as a limit tells only on which side of the number the result lay.

In US5736559A, “Biphenyl derivatives, pharmaceutical compositions containing these compounds and processes for preparing them” (Karl Thomae GmbH, priority 1991, dated 1998) one finds IC50 and EC50 data, which are given here for 30 molecules.

Experiment [1] has as its target Fibrinogen binding to human thrombocytes. Description: Fibrinogen binding to human thrombocytes. The settings on record: 125I fibrinogen; gel-filtered human platelets; ADP; 20 minutes at ambient temperature; read-out: Fibrinogen binding test IC50. As for the experimental part: Fibrinogen binding to human thrombocytes The blood obtained by puncturing an antecubital vein is anticoagulated with trisodium citrate (final concentration: 13 mM) and centrifuged for 10 minutes at 170 xg. The supernatant platelet-rich plasma is poured onto a Sepharose 2B column (Pharmacia) and eluted with a solution of 90 mM common salt, 14 mM trisodium citrate, 5 mM glucose and 50 mM Tris(hydroxymethyl)aminomethane, adjusted to pH 7.4. The gel-filtered platelets (GFP) appearing before the plasma proteins are used for the binding experiments. 50 μl of a 60 mM calcium chloride solution, 50 μl of a 0.6 mM adenosine diphosphate solution, 100 μl of substance solution or solvent and 50 μl of fibrinogen solution (containing 3 μg of ^125 I fibrinogen) are added to 750 μl of GFP and incubated for 20 minutes at ambient temperature. The non-specific binding is determined in the presence of 3 mg/ml of cold fibrinogen. 900 μl of the incubated material are carefully pipetted onto 250 μl of silicon oil (AP 38: AR 20, 1:2 v/v, Wacker Chemie) in Eppendorf tubes and centrifuged for 2 minutes at 10,000 xg. The aqueous supernatant and some of the oil are drawn off, the tips of the tubes are cut off together with the platelet pellet and the quantity of bound fibrinogen is determined in a gamma counter. The concentration of substance which brings about a 50% inhibition in fibrinogen binding is determined from a series of concentrations and is given as the IC50 value.

Experiment [2] has as its system thrombocyte (platelet) aggregation. Briefly: Antithrombotic activity: collagen-induced thrombocyte aggregation in platelet rich plasma (Born and Cross). Format: cell-based. The settings on record: Homo sapiens, platelet rich plasma from healthy test subjects, 10 minutes at 37° C. preincubation, 50% change in optical density, read-out: Inhibition of platelet aggregation EC50. As for the experimental part: 2. Antithrombotic activity Method: Thrombocyte aggregation is measured in platelet rich plasma from healthy test subjects using the Born and Cross method (J. Physiol. 170, 397 (1964)). In order to inhibit coagulation the blood is mixed with sodium citrate 3.14% in a ratio by volume of 1:10. Collagen-induced aggregation: The course of the decrease in optical density of the platelet suspension is photometrically measured and recorded after the addition of the substance which triggers aggregation. The rate of aggregation is deduced from the gradient angle of the density curve. The point on the curve where there is maximum transmittance is used to calculate the optical density. The quantity of collagen used is as little as possible but sufficient to give an irreversible reaction curve. Standard commercial collagen produced by Hormonchemie of Munich is used. Before the addition of the collagen the plasma is incubated for 10 minutes at 37° C. with the substance. From the measurements obtained, an EC50 is determined graphically, relating to a 50% change in optical density in terms of the inhibition of aggregation.

`COC(=O)CN1CCN(C(=O)c2ccc(-c3ccc(C(=N)N)cc3)cc2)CC1` [6(74), 4-amidino-4'-[(4-methoxycarbonylmethylpiperazino)-carbonyl]biphenyl dihydrochloride]: the half-maximal inhibitory concentration (IC50) – broadly, the concentration that gives 50% inhibition – in experiment [1] was found to be 24 µM. In experiment [2], the EC50 (commonly the concentration that produces a half-maximal response) was 3.2 µM.

In the case of `N=C(N)c1ccc(-c2ccc(C(=O)NC3CCC(C(=O)O)CC3)cc2)cc1` (stereo not drawn) [1(80), 4-amidino-4'-[(4-carboxycyclohexyl)aminocarbonyl]-biphenyl hydrochloride], the IC50 in experiment [1] amounted to 0.031 µM. Besides, the EC50 in experiment [2] was found to be 0.04 µM.

As to `N=C(N)c1ccc(-c2ccc(CC(=O)NCCC(=O)O)cc2)cc1` [Example 1, 4-Amidino-4'-[[(2-carboxyethyl)aminocarbonyl]methyl]-biphenyl], the IC50 in experiment [1] was 0.29 µM. Further, in experiment [2], the EC50 worked out at 1.1 µM.

On to `COC(=O)CCc1cccc(NC(=O)Cc2ccc(-c3ccc(C(=N)N)cc3)cc2)c1` [6(47), 4-amidino-4'-[[[3-(2-methoxycarbonylethyl)phenyl]-aminocarbonyl]methyl]biphenyl hydrochloride], for which the IC50 in experiment [1] is 4.9 µM. In addition, the 50% effective concentration (EC50) in experiment [2] amounted to 42 µM.

Turning to `COC(=O)CCCOc1ccc(-c2ccc(C(=N)N)cc2)cc1` [6(8), 4-amidino-4'-(3-methoxycarbonylpropyloxy)biphenyl dihydrogencarbonate], in experiment [1], the 50% inhibitory concentration (IC50) amounted to 5.2 µM. In addition, in experiment [2], the 50% effective concentration (EC50) was 3.4 µM.

Take `N=C(N)c1ccc(-c2ccc(C(=O)N3CCCC(CC(=O)O)C3)cc2)cc1` (stereo not drawn) [1(41), 4-amidino-4'-[(3-carboxymethylpiperidino)-carbonyl]biphenyl hydrochloride]: the IC50 in experiment [1] is 0.52 µM. The EC50 in experiment [2] was 2.6 µM.

Turning to `COC(=O)CCNC(=O)COc1ccc(-c2ccc(C(=N)N)cc2)cc1` [6(3), 4-amidino-4'-[[(2-methoxycarbonylethyl)-aminocarbonyl]methyloxy]biphenyl h ydrochloride], in experiment [1], the IC50 turned out to be 18 µM. The EC50 in experiment [2] stood at 17 µM.

For the molecule `N=C(N)c1ccc(-c2ccc(C(=O)N3CCN(CCC(=O)O)CC3)cc2)cc1` [1(68), 4-amidino-4'-[[4-(2-carboxyethyl)piperazino]-carbonyl]biphenyl dihydrochloride], the IC50 in experiment [1] is 0.56 µM. Moreover, the EC50 in experiment [2] was determined as 3.4 µM.

In the case of `N=C(N)c1ccc(-c2ccc(C(=O)NCCCCC(=O)O)cc2)cc1` [1(65), 4-amidino-4'-[(4-carboxybutyl)aminocarbonyl]-biphenyl hydrochloride], in experiment [1], the concentration for half-maximal inhibition (IC50) amounted to 0.22 µM. Moreover, in experiment [2], the EC50 was determined as 2.4 µM.

For `COC(=O)C1CCN(C(=O)Cc2ccc(-c3ccc(C(=N)N)cc3)cc2)CC1` [6(56), 4-amidino-4'-[(4-methoxycarbonylpiperidino)-carbonylmethyl]biphenyl hydrochloride], the IC50 in experiment [1] was determined as 5.9 µM. Moreover, the EC50 in experiment [2] is 4.9 µM.

On to `N=C(N)c1ccc(-c2ccc(C(=O)N3CCN(CC(=O)O)CC3)cc2)cc1` [1(67), 4-amidino-4'-[(4-carboxymethylpiperazino)-carbonyl]biphenyl hydrochloride], for which the IC50 in experiment [1] is 0.18 µM. Also, the EC50 in experiment [2] was found to be 0.35 µM.

Turning to `N=C(N)c1ccc(-c2ccc(OCC(=O)N3CCC(C(=O)O)CC3)cc2)cc1` [1(6), 4-amidino-4'-[[(4-carboxypiperidino)carbonyl]-methyloxy]biphenyl], the IC50 in experiment [1] amounted to 0.33 µM. The EC50 in experiment [2] turned out to be 1.2 µM.

Take `COC(=O)Cc1cccc(NC(=O)c2ccc(-c3ccc(C(=N)N)cc3)cc2)c1` [6(4), 4-amidino-4'-[[3-(methoxycarboxylmethyl)phenyl]-aminocarbonyl]biphenyl hydrochloride]: the IC50 in experiment [1] was 47 µM. For the same molecule, in experiment [2], the EC50 turned out to be 4.4 µM.

Turning to `N=C(N)c1ccc(-c2ccc(OCCCCCC(=O)O)cc2)cc1` [Example 2, 4-Amidino-4'-(5-carboxypentyloxy)biphenyl hydrochloride], in experiment [1], the IC50 was determined as 0.21 µM. The EC50 in experiment [2] was found to be 10 µM.

Take `N=C(N)c1ccc(-c2ccc(OCCCCC(=O)O)cc2)cc1` [2(2), 4-amidino-4'-(4-carboxybutyloxy)biphenyl]: the IC50 in experiment [1] is 0.046 µM. Also, the EC50 in experiment [2] amounted to 45 µM.

With `N=C(N)c1ccc(-c2ccc(OCC(=O)NCC(=O)O)cc2)cc1` [1(3), 4-amidino-4'-[[(carboxymethylamino)carbonyl]-methoxy]-biphenyl], in experiment [1], the IC50 stood at 1.8 µM. Besides, the EC50 in experiment [2] was found to be 13 µM.

As for `COc1ccc(CCNC(=O)C(CC(=O)O)NC(=O)CNC(=O)c2ccc(-c3ccc(C(=N)N)cc3)cc2)cc1` (stereo not drawn) [Example 3, 4-Amidino-4'-[[[2-carboxy-1-[[2-(4-methoxyphenyl)-ethyl]aminocarbonyl]ethylamino]carbonylmethyl]-aminocarbonyl]biphenyl hydrochloride], the IC50 in experiment [1] is 1.3 µM. Also, in experiment [2], the EC50 worked out at 16 µM.

On to `N=C(N)c1ccc(-c2ccc(CC(=O)N3CCC(C(=O)O)CC3)cc2)cc1` [1(45), 4-amidino-4'-[(4-carboxypiperidino)-carbonylmethyl]biphenyl hydrochloride], for which the IC50 in experiment [1] is 0.22 µM. For the same molecule, the EC50 in experiment [2] came out at 2 µM.

Regarding `COC(=O)CC1CCCN(C(=O)c2ccc(-c3ccc(C(=N)N)cc3)cc2)C1` (stereo not drawn) [6(52), 4-amidino-4'-[(3-methoxycarbonylmethylpiperidino)-carbonyl]biphenyl hydrochloride], the IC50 in experiment [1] is 16 µM. Moreover, in experiment [2], the EC50 turned out to be 38 µM.

With `N=C(N)c1ccc(-c2ccc(OCC(=O)N3CCCC(C(=O)O)C3)cc2)cc1` (stereo not drawn) [1(7), 4-amidino-4'-[[(3-carboxypiperidino)carbonyl]-methyloxy]biphenyl], the IC50 in experiment [1] was 1.9 µM. For the same molecule, the EC50 in experiment [2] was 3.8 µM.

For the molecule `COC(=O)C1CCN(C(=O)COc2ccc(-c3ccc(C(=N)N)cc3)cc2)CC1` [6(48), 4-amidino-4'-[[(4-methoxycarbonylpiperidino)-carbonyl]methyloxy]biphenyl hydrochloride], the IC50 in experiment [1] was 25 µM. In experiment [2], the EC50 was found to be 0.59 µM.

With `COC(=O)Cc1cccc(NC(=O)Cc2ccc(-c3ccc(C(=N)N)cc3)cc2)c1` [6(46), 4-amidino-4'-[[[3-(methoxycarbonylmethyl)phenyl]-aminocarbonyl]methyl]biphenyl hydrochloride], the IC50 in experiment [1] came out at 19 µM. The EC50 in experiment [2] came out at 82 µM.

`CN(C(=O)c1ccc(-c2ccc(C(=N)N)cc2)cc1)C1CCC(C(=O)O)CC1` (stereo not drawn) [1(94), 4-amidino-4'-[N-(4-carboxycyclohexyl)-N-methyl-aminocarbonyl]biphenyl]: the EC50 in experiment [2] came to 0.04 µM.

On to `COC(=O)CCCCNC(=O)c1ccc(-c2ccc(C(=N)N)cc2)cc1` [6(72), 4-amidino-4'-[(4-methoxycarbonylbutyl)amino-carbonyl]biphenyl hydrochloride], for which the half-inhibitory concentration (IC50) in experiment [1] worked out at 7.4 µM. Further, in experiment [2], the EC50 turned out to be 3.4 µM.

Regarding `N=C(N)c1ccc(-c2ccc(C(=O)NCC(N)=O)cc2)cc1` [6(86), 4-amidino-4'-(aminocarbonylmethylaminocarbonyl)-biphenyl hydrochloride], in experiment [1], the half-maximal inhibitory concentration (IC50) is 5.7 µM. Besides, the EC50 in experiment [2] was 21 µM.

In the case of `COC(=O)CNC(=O)COc1ccc(-c2ccc(C(=N)N)cc2)cc1` [6(2), 4-amidino-4'-[[(4-methoxycarbonylmethyl)-aminocarbonyl]methyloxy]biphenyl hydrochloride], in experiment [1], the IC50 was 14 µM. Also, the EC50 in experiment [2] amounted to 40 µM.

Take `COC(=O)CCCCOc1ccc(-c2ccc(C(=N)N)cc2)cc1` [6(9), 4-amidino-4'-(4-methoxycarbonylbutyloxy)biphenyl hydrochloride]: the IC50 in experiment [1] was found to be 0.97 µM. The EC50 in experiment [2] amounted to 1.3 µM.

With `CCOC(=O)CC1CCN(C(=O)c2ccc(-c3ccc(C(=N)NC(=O)OCC)cc3)cc2)CC1` [8(7), 4-(N-ethoxycarbonylamidino)-4'-[(4-ethoxycarbonyl-methylpiperidino)carbonyl]biphenyl], the EC50 in experiment [2] is over 10 µM.

Turning to `N=C(N)c1ccc(-c2ccc(C(=O)N3CCC(C(=O)O)CC3)cc2)cc1` [1(74), 4-amidino-4'-[(4-carboxypiperidino)carbonyl]-biphenyl hydrochloride], the half-inhibitory concentration (IC50) in experiment [1] was determined as 2.7 µM. Also, the EC50 in experiment [2] came to 10.7 µM.

Take `COC(=O)C1CCC(N(C)C(=O)c2ccc(-c3ccc(C(=N)N)cc3)cc2)CC1` (stereo not drawn) [6(98), 4-amidino-4'-[N-(4-methoxycarbonylcyclohexyl)-N-methylaminocarbonyl]biphenyl hydrochloride]: in experiment [2], the EC50 turned out to be 0.37 µM.
